According to US11319329B2, “Inhibitors of Bruton's tyrosine kinase and methods of their use” (JANSSEN PHARMACEUTICA NV, priority 2015, dated 2022):

Molecular target: unphosphorylated-BTK kinase domain (UP-BTK), GST-tagged human BTK (389-659aa) (Homo sapiens (Human), UniProt Q06187)
Assay: BTK kinase Lanthascreen binding assay
Details: for BTK_I_binding pIC50: negative log of the IC50 in molar, 60 minutes incubation
Experimental: BTK Kinase Lanthascreen Binding Assay:
A BTK kinase lanthascreen binding assay monitors compound binding to unphosphorylated-BTK kinase domain (UP-BTK), by competing with a fluorescent labeled tracer. […] Data were analyzed using Xlfit™ version 5.3 from ID Business Solutions (Guildford), Microsoft Excel add-in. pIC50 refers to the negative log of the IC50 in molar

[1] = unphosphorylated BTK kinase domain, Lanthascreen

Chain of unphosphorylated-BTK kinase domain (UP-BTK), GST-tagged human BTK (389-659aa) (Q06187 389-659): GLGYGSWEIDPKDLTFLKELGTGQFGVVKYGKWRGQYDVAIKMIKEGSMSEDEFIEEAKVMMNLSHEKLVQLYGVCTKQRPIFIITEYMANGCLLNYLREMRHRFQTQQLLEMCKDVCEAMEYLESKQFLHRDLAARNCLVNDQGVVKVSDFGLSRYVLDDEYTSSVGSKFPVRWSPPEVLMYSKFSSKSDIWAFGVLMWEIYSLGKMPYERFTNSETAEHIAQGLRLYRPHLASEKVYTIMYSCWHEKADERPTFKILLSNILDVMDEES

Compound	BTK_I_binding pIC50 (50 nM Tracer 236)	other results
C=CC(=O)N[C@H]1CCC[C@H]1NC(=O)c1sc2nccc3c2c1NC(=O)N3c1ccc(Oc2cccnc2)cc1 (relative stereo) [Example 300, N-((1R,2S)-2-Acrylamidocyclopentyl)-4-oxo-5-(*S)-(4-(pyridin-3-yloxy)phen)-4,5-dihydro-3H-1-thia-3,5,8-triazaacenaphthylene-2-carboxamide]	8.27	
Cc1cc(Oc2ccccc2)ccc1N1C(=O)Nc2c(C(=O)N[C@@H]3CCC[C@H]3O)sc3nccc1c23 (single isomer, unassigned) [Example 4]		BTK_I_binding pIC50 [1]: 7.73
Cc1cc(Oc2ccccc2)ccc1N1C(=O)Nc2c(C(=O)N[C@H]3CC[C@H](O)CC3)sc3nccc1c23 (single isomer, unassigned) [Example 85, N-((1R,4R)-4-Hydroxycyclohexyl)-5-(*S)-(2-methyl-4-phenoxyphenyl)-4-oxo-4,5-dihydro-3H-1-thia-3,5,8-triazaacenaphthylene-2-carboxamide]		IC50 (read-out: BTK_I_binding pIC50 (converted)): 21.4 nM
C=CC(=O)NC1CCCC[C@H]1NC(=O)c1sc2nccc3c2c1NC(=O)N3c1cnc(OCC(C)C)cc1C (single isomer, unassigned) [Example 352, N-((1R,2S)-2-Acrylamidocyclohexyl)-5-(*R)-(6-isobutoxy-4-methylpyridin-3-yl)-4-oxo-4,5-dihydro-3H-1-thia-3,5,8-triazaacenaphthylene-2-carboxamide]	<6	
CCC(=O)N[C@H]1CCC[C@H]1NC(=O)c1sc2nccc3c2c1NC(=O)N3c1ccc(Oc2ccccc2)nc1C (single isomer, unassigned) [Example 353, 5-(*S)-(2-Methyl-6-phenoxypyridin-3-yl)-4-oxo-N-((1R,2R)-2-propionamidocyclopentyl)-4,5-dihydro-3H-1-thia-3,5,8-triazaacenaphthylene-2-carboxamide]	<6	
C=CC(=O)N[C@H]1CCCC[C@H]1NC(=O)c1sc2nccc3c2c1NC(=O)N3c1cnc(CC(C)C)cc1C (single isomer, unassigned) [Example 357, N-((1R,2S)-2-Acrylamidocyclohexyl)-5-(*S)-(6-isobutyl-4-methylpyridin-3-yl)-4-oxo-4,5-dihydro-3H-1-thia-3,5,8-triazaacenaphthylene-2-carboxamide]	7.98	
Cc1cc(Oc2ccccc2)ccc1N1C(=O)Nc2c(C(=O)N[C@H]3CCCC[C@@H]3NC=O)sc3nccc1c23 [Example 54, N-((1S,2S)-2-Formamidocyclohexyl)-5-(2-methyl-4-phenoxyphenyl)-4-oxo-4,5-dihydro-3H-1-thia-3,5,8-triazaacenaphthylene-2-carboxamide]		BTK_I_binding pIC50 [1]: 5.90
